pEC50: −log10 of the molar value. In brackets after ≈: the same amount, converted by molar mass.
Tests used:
Nonstructural protein 5A [1] = biological target: T1, Nonstructural protein 5A (Hepatitis C virus, UniProt Q5L478); assay: Inhibition of Hepatitis C virus 1a NS5A; design: species or system Hepatitis C virus subtype 1a
T1 sequence (Q5L478 whole entry): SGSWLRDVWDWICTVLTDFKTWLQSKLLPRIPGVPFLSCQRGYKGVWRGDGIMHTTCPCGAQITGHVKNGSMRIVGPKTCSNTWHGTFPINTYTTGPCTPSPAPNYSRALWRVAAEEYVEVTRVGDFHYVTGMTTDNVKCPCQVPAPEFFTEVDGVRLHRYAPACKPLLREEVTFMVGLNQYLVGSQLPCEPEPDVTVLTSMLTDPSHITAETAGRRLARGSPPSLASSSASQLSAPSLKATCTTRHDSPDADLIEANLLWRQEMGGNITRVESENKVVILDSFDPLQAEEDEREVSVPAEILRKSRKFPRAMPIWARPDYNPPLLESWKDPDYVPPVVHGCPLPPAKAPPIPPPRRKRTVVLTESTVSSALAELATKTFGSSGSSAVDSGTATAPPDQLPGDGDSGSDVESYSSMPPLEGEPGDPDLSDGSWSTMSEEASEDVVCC

Nonstructural protein 5A [2] = biological target: T1, Nonstructural protein 5A; assay: Inhibition of Hepatitis C virus 1b NS5A; design: species or system Hepatitis C virus subtype 1b
[3] = Solubility of compound in JP 1st fluid at pH 1.2; format: physicochemical
[4] = Apparent permeability of compound in human Caco-2 cells; format: ADME, cell-based
[5] = Oral bioavailability in Sprague-Dawley rat at 3 mg/kg; format: ADME, organism-based; conditions: in vivo
Nonstructural protein 5A [6] = biological target: T1, Nonstructural protein 5A; assay: Inhibition of Hepatitis C virus 2a NS5A; design: species or system Hepatitis C virus subtype 2a
Nonstructural protein 5A [7] = biological target: T1, Nonstructural protein 5A; assay: Inhibition of Hepatitis C virus 3a NS5A; design: species or system Hepatitis C virus subtype 3a
Nonstructural protein 5A [8] = biological target: T1, Nonstructural protein 5A; assay: Inhibition of Hepatitis C virus 1a NS5A Q30R mutant; design: species or system Hepatitis C virus subtype 1a
[9] = Inhibition of Hepatitis C virus 1a NS5A Q30K mutant; design: species or system Hepatitis C virus subtype 1a
Nonstructural protein 5A [10] = biological target: Nonstructural protein 5A (Hepatitis C virus, UniProt Q5L478, Q30E); assay: Inhibition of Hepatitis C virus 1a NS5A Q30E mutant; design: species or system Hepatitis C virus subtype 1a
Nonstructural protein 5A [11] = biological target: T1, Nonstructural protein 5A; assay: Inhibition of Hepatitis C virus 1a H77 NS5A; design: species or system Hepatitis C virus subtype 1a

Structure (SMILES)	pEC50 (Nonstructural protein 5A [1])	pEC50 (Nonstructural protein 5A [2])	solubility [3]	Papp [4]	bioavailability [5]	pEC50 (Nonstructural protein 5A [6])	pEC50 (Nonstructural protein 5A [7])	pEC50 (Nonstructural protein 5A [8])	pEC50 [9]	pEC50 (Nonstructural protein 5A [10])	pEC50 (Nonstructural protein 5A [11])
CCCC#CCOC(=O)N[C@@H]1CCN(C(=O)N[C@@H](C(=O)N2CCC[C@H]2c2nc(-c3ccc([C@H]4CC[C@H](NC(=O)c5cnccn5)CC4)cc3)c[nH]2)c2ccccc2)C1	9.57	10.89	135 µM (≈ 106 µg/mL)	1.7 ×10⁻⁶ cm/s							
COC1CCC(C(=O)N[C@H]2CC[C@H](c3ccc(-c4c[nH]c([C@@H]5CCCN5C(=O)[C@H](NC(=O)N5CC[C@@H](NC(=O)OCC6CCCCC6)C5)c5ccccc5)n4)cc3)CC2)CC1 (stereo not given in full)	10.41	10.80	108 µM (≈ 90.3 µg/mL)	0.23 ×10⁻⁶ cm/s							
CC#CCOC(=O)N[C@@H]1CCN(C(=O)N[C@@H](C(=O)N2CCC[C@H]2c2nc(-c3ccc([C@H]4CC[C@H](NC(=O)c5cnccn5)CC4)cc3)c[nH]2)c2ccccc2)C1	8.68	10.55	462 µM (≈ 350 µg/mL)	2.1 ×10⁻⁶ cm/s							
CC(C)(C)C#CCOC(=O)N[C@@H]1CCN(C(=O)N[C@@H](C(=O)N2CCC[C@H]2c2nc(-c3ccc([C@H]4CC[C@H](NC(=O)c5cnc(CO)cn5)CC4)cc3)c[nH]2)c2ccccc2)C1	10.23	10.89	132 µM (≈ 110 µg/mL)	1 ×10⁻⁶ cm/s	32%	> 11.00	> 11.00	9.74	7.77	7.82	
COC(=O)N[C@H](C(=O)N1CCC[C@H]1c1ncc(-c2ccc(-c3ccc(-c4cnc([C@@H]5CCCN5C(=O)[C@@H](NC(=O)OC)C(C)C)[nH]4)cc3)cc2)[nH]1)C(C)C [DACLATASVIR]						10.15	9.84	7.21	5.91	5.90	10.30
CC(C)C#CCOC(=O)N[C@@H]1CCN(C(=O)N[C@@H](C(=O)N2CCC[C@H]2c2nc(-c3ccc([C@H]4CC[C@H](NC(=O)c5cnc(CO)cn5)CC4)cc3)c[nH]2)c2ccccc2)C1	9.92	10.77	190 µM (≈ 155 µg/mL)	1.4 ×10⁻⁶ cm/s	18%						
CC(C)C#CCOC(=O)N[C@@H]1CCN(C(=O)N[C@@H](C(=O)N2CCC[C@H]2c2nc(-c3ccc([C@H]4CC[C@H](NC(=O)c5cnccn5)CC4)cc3)c[nH]2)c2ccccc2)C1	9.74	> 11.00	246 µM (≈ 193 µg/mL)	1.6 ×10⁻⁶ cm/s	10%						
CC#CCCOC(=O)N[C@@H]1CCN(C(=O)N[C@@H](C(=O)N2CCC[C@H]2c2nc(-c3ccc([C@H]4CC[C@H](NC(=O)c5cnccn5)CC4)cc3)c[nH]2)c2ccccc2)C1	8.47	> 11.00	352 µM (≈ 272 µg/mL)	2.1 ×10⁻⁶ cm/s							
O=C(N[C@@H]1CCN(C(=O)N[C@@H](C(=O)N2CCC[C@H]2c2nc(-c3ccc([C@H]4CC[C@H](NC(=O)c5cnccn5)CC4)cc3)c[nH]2)c2ccccc2)C1)OCC1CCCCC1	9.46	11.19	76 µM (≈ 61 µg/mL)	0.85 ×10⁻⁶ cm/s	4.9%						
CCC#CCOC(=O)N[C@@H]1CCN(C(=O)N[C@@H](C(=O)N2CCC[C@H]2c2nc(-c3ccc([C@H]4CC[C@H](NC(=O)c5cnccn5)CC4)cc3)c[nH]2)c2ccccc2)C1	9.41	10.74	336 µM (≈ 259 µg/mL)	3.1 ×10⁻⁶ cm/s							
COC1CCN(C(=O)N[C@H]2CC[C@H](c3ccc(-c4c[nH]c([C@@H]5CCCN5C(=O)[C@H](NC(=O)N5CC[C@@H](NC(=O)OCc6ccccc6)C5)c5ccccc5)n4)cc3)CC2)CC1	9.82	10.39	222 µM (≈ 184 µg/mL)	< 0.1 ×10⁻⁶ cm/s							
CC(C)(C)C#CCOC(=O)N[C@@H]1CCN(C(=O)N[C@@H](C(=O)N2CCC[C@H]2c2nc(-c3ccc([C@H]4CC[C@H](NC(=O)c5cnccn5)CC4)cc3)c[nH]2)c2ccccc2)C1	9.89	> 11.00	142 µM (≈ 114 µg/mL)	1.1 ×10⁻⁶ cm/s	5.3%						
CCCCCOC(=O)N[C@@H]1CCN(C(=O)N[C@@H](C(=O)N2CCC[C@H]2c2nc(-c3ccc([C@H]4CC[C@H](NC(=O)c5cnccn5)CC4)cc3)c[nH]2)c2ccccc2)C1	9.01	11.25	197 µM (≈ 153 µg/mL)	3 ×10⁻⁶ cm/s	11%						
COC1CCC(C(=O)N[C@H]2CC[C@H](c3ccc(-c4c[nH]c([C@@H]5CCCN5C(=O)[C@H](NC(=O)N5CC[C@@H](NC(=O)OCc6ccccc6)C5)c5ccccc5)n4)cc3)CC2)CC1 (stereo not given in full)	9.77	10.72	193 µM (≈ 160 µg/mL)	< 0.1 ×10⁻⁶ cm/s	1.4%						

Reference: ChEMBL document CHEMBL4725310, “Orally bioavailable HCV NS5A inhibitors of unsymmetrical structural class” (Bioorg Med Chem Lett, 2020)
